Measurements: patent publication US9101136B2, “Synergistic herbicide/fungicide composition containing certain pyridine carboxylic acids and certain fungicides” (Dow AgroSciences LLC, priority 2010, dated 2015)
Where a name gives a salt, the structure may show the parent alone.

Columns and labels:
Format in all cases: in vivo
[1] = system: Russian thistle (Salsola iberica L; SASKR); test: Postemergence herbicidal activity of mixtures on Russian thistle; details: for SASKR Ob (observed control): alone
Protocol: (§1) Seeds of the desired test plant species were planted in Sun Gro MetroMix 306 planting mixture, which typically has a pH of 6.0 to 6.8 and an organic matter content of about 30 percent, in plastic pots with a surface area of 103.2 square centimeters (cm^2). When required to ensure good germination and healthy plants, a fungicide treatment and/or other chemical or physical treatment was applied. The plants were grown for 7-36 days (d) in a greenhouse with an approximate 14-hour (h) photoperiod which was maintained at about 18° C. during the day and 17° C. during the night. Nutrients and water were added on a regular basis and supplemental lighting was provided with overhead metal halide 1000-Watt lamps as necessary. The plants were employed for testing when they reached the second or third true leaf stage.
(§2) Treatments consisted of a cereal fungicide compound (as listed in Tables 1 through 34) and the cereal herbicide, 4-amino-3-chloro-6-(4-chloro-2-fluoro-3-methoxyphenyl)pyridine-2-carboxylic acid, alone and in combination. Weighed amounts of acid, esters (methyl) or salts (triethylammonium, TEA) of 4-amino-3-chloro-6-(4-chloro-2-fluoro-3-methoxyphenyl)pyridine-2-carboxylic acid (Compound I) were placed in 25 milliliter (mL) glass vials and dissolved in a volume of 97:3 volume-to-volume (v/v) acetone/dimethyl sulfoxide (DMSO) to obtain 4.5 milligrams active ingredient per milliliter (mg ai/mL) concentrated solutions. […] The concentrated solutions of Compound I were diluted to 1.5 mg ai/mL with the addition of 2 volumes of an aqueous mixture containing acetone, water, isopropyl alcohol, DMSO, Agri-dex crop oil concentrate, and Triton® X-77 surfactant in a 64.7:26.0:6.7:2.0:0.7:0.01 v/v ratio. A dilution solution was prepared by mixing 1 volume of 97:3 v/v acetone/DMSO and 2 volumes of an aqueous mixture containing acetone, water, isopropyl alcohol, DMSO, Agri-dex crop oil concentrate, and Triton® X-77 surfactant in a 64.7:26.0:6.7:2.0:0.7:0.01 v/v ratio. Compound requirements are based upon a 12 mL application volume at a rate of 187 liters per hectare (L/ha). The concentrated solutions of the cereal fungicides were prepared following the same procedure. Weighed amounts of fungicide were placed in 25 mL glass vials and dissolved in a volume of 97:3 v/v acetone/DMSO to obtain concentrated fungicide solutions. The concentrated solutions of the safener were prepared following the same procedure. Weighed amounts of safener were placed in 25 mL glass vials and dissolved in a volume of 97:3 v/v acetone/DMSO to obtain concentrated safener solutions.
(§3) Spray solutions of the cereal herbicide and the fungicidal compound mixtures were prepared by adding the concentrated solutions to the appropriate amount of dilution solution to form 12 mL spray solution with active ingredients in combinations. Spray solutions of the cereal herbicide, herbicide safener and the fungicidal compound mixtures were prepared by adding the concentrated solutions to the appropriate amount of dilution solution to form 12 mL spray solution with active ingredients in combinations.
(§4) Formulated compounds were applied to the plant material with an overhead Mandel track sprayer equipped with 8002E nozzles calibrated to deliver 187 L/ha over an application area of 0.503 square meters (m^2) at a spray height of 18 inches […] above average plant canopy. Control plants were sprayed in the same manner with the solvent blank.
(§5) The treated plants and control plants were placed in a greenhouse as described above and watered by sub-irrigation to prevent wash-off of the test compounds. After 20-22 d, the condition of the test plants as compared with that of the control plants was determined visually and scored on a scale of 0 to 100 percent where 0 corresponds to no injury and 100 corresponds to complete kill. […]

[2] = system: kochia (Kochia scoparia L; KCHSC); test: Postemergence herbicidal activity of mixtures on kochia; set-up: KCHSC Ob: unit: %; details: for KCHSC Ob (observed control): alone
Protocol: as §1, §2, §3, §4, §5

[3] = system: wild pansy (Viola tricolor L; VIOTR); test: Postemergence herbicidal activity of mixtures on wild pansy
Protocol: as §1, §2, §3, §4, §5

[4] = system: bird's-eye speedwell (Veronica persica L; VERPE); test: Postemergence herbicidal activity of mixtures on bird's-eye speedwell; details: for VERPE Ob (observed control): alone
Protocol: as §1, §2, §3, §4, §5

[5] = system: scented mayweed (Matricaria chamomila L; MATCH); test: Postemergence herbicidal activity of mixtures on scented mayweed; details: for MATCH Ob (observed control): alone
Protocol: as §1, §2, §3, §4, §5

[6] = system: Wheat; test: Safening activity of herbicidal compositions on wheat (crop injury); details: Compound I Acid 35 g/ha
Protocol: as §1, §2, §3, §4, §5

[7] = system: Barley; test: Safening activity of herbicidal compositions on barley (crop injury); details: Compound I Acid 35 g/ha
Protocol: as §1, §2, §3, §4, §5

COc1c(Cl)ccc(-c2cc(N)c(Cl)c(C(=O)O)n2)c1F [Compound I TEA Salt, 4-amino-3-chloro-6-(4-chloro-2-fluoro-3-methoxyphenyl)pyridine-2-carboxylic acid]
pest or weed control at 8.75 g/ha ([1]; Salsola tragus, post-emergence, Compound I 8.75 g/ha alone, read-out: SASKR Ob): 80% | pest or weed control at 17.5 g/ha ([1]; Salsola tragus, post-emergence, Compound I 17.5 g/ha alone, read-out: SASKR Ob): 84% | pest or weed control at 35 g/ha ([1]; Salsola tragus, post-emergence, Compound I 35 g/ha alone, read-out: SASKR Ob): 86% | SASKR Ob (observed control) ([1]; 8.75 g/ha): 80% | SASKR Ob (observed control) ([1]; 17.5 g/ha): 84% | SASKR Ob (observed control) ([1]; 35 g/ha): 86% | KCHSC Ob ([2]; Compound I 8.75 g/ha alone): 40% | KCHSC Ob ([2]; Compound I 17.5 g/ha alone): 55% | KCHSC Ob ([2]; Compound I 35 g/ha alone): 65% | KCHSC Ob (observed control) ([2]; 8.75 g/ha): 40% | KCHSC Ob (observed control) ([2]; 17.5 g/ha): 55% | KCHSC Ob (observed control) ([2]; 35 g/ha): 65% | VIOTR Ob ([3]; Compound I 8.75 g/ha alone): 23% | VIOTR Ob ([3]; Compound I 17.5 g/ha alone): 40% | VIOTR Ob ([3]; Compound I 35 g/ha alone): 47% | pest or weed control at 17.5 g/ha ([3]; Viola tricolor, post-emergence, alone, 17.5 g/ha, read-out: VIOTR Ob (observed control)): 40% | pest or weed control at 35 g/ha ([3]; Viola tricolor, post-emergence, alone, 35 g/ha, read-out: VIOTR Ob (observed control)): 47% | VIOTR Ob (observed control) ([3]; alone, 8.75 g/ha): 23% | VERPE Ob ([4]; Compound I 8.75 g/ha alone): 10% | VERPE Ob ([4]; Compound I 17.5 g/ha alone): 40% | VERPE Ob ([4]; Compound I 35 g/ha alone): 70% | VERPE Ob (observed control) ([4]; 8.75 g/ha): 10% | VERPE Ob (observed control) ([4]; 17.5 g/ha): 40% | VERPE Ob (observed control) ([4]; 35 g/ha): 70% | MATCH Ob ([5]; Compound I 8.75 g/ha alone): 40% | pest or weed control at 17.5 g/ha ([5]; Matricaria, post-emergence, Compound I 17.5 g/ha alone, read-out: MATCH Ob): 67% | pest or weed control at 35 g/ha ([5]; Matricaria, post-emergence, Compound I 35 g/ha alone, read-out: MATCH Ob): 73% | MATCH Ob (observed control) ([5]; 8.75 g/ha): 40% | MATCH Ob (observed control) ([5]; 17.5 g/ha): 67% | MATCH Ob (observed control) ([5]; 35 g/ha): 73%

N#Cc1c(Cl)c(Cl)c(Cl)c(C#N)c1Cl [Chlorothalonil, 2,4,5,6-tetrachloro-1,3-benzenedicarbonitrile]
pest or weed control at 250 g/ha ([1]; Salsola tragus, post-emergence, fungicide 250 g/ha alone, read-out: SASKR Ob): 0% | pest or weed control at 250 g/ha ([2]; Bassia scoparia, post-emergence, fungicide 250 g/ha alone, read-out: KCHSC Ob): 0% | pest or weed control at 250 g/ha ([3]; Viola tricolor, post-emergence, fungicide 250 g/ha alone, read-out: VIOTR Ob): 0% | pest or weed control at 250 g/ha ([4]; Veronica persica, post-emergence, fungicide 250 g/ha alone, read-out: VERPE Ob): 0% | pest or weed control at 250 g/ha ([5]; Matricaria, post-emergence, fungicide 250 g/ha alone, read-out: MATCH Ob): 0%

[[2-[(dithiocarboxy)amino]ethyl]carbamo-dithioato(2^−)-κS,κS′]manganese mixture with [[2-[(dithiocarboxy)amino]ethyl]carbamo-dithioato(2^−)-κS,κS′]zinc [Mancozeb]
SASKR Ob ([1]; fungicide 281.25 g/ha alone): 0% | KCHSC Ob ([2]; fungicide 281.25 g/ha alone): 0% | VIOTR Ob ([3]; fungicide 281.25 g/ha alone): 0% | VERPE Ob ([4]; fungicide 281.25 g/ha alone): 0% | MATCH Ob ([5]; fungicide 281.25 g/ha alone): 0%

CC(C1CC1)C(O)(Cn1cncn1)c1ccc(Cl)cc1 (stereo not drawn) [Cyproconazole, α-(4-chlorophenyl)-α-(1-cyclopropylethyl)-1H-1,2,4-triazole-1-ethanol]
pest or weed control at 19.8 g/ha ([1]; Salsola tragus, post-emergence, fungicide 19.8 g/ha alone, read-out: SASKR Ob): 0% | pest or weed control at 19.8 g/ha ([2]; Bassia scoparia, post-emergence, fungicide 19.8 g/ha alone, read-out: KCHSC Ob): 0% | pest or weed control at 19.8 g/ha ([3]; Viola tricolor, post-emergence, fungicide 19.8 g/ha alone, read-out: VIOTR Ob): 0% | pest or weed control at 19.8 g/ha ([4]; Veronica persica, post-emergence, fungicide 19.8 g/ha alone, read-out: VERPE Ob): 0% | pest or weed control at 19.8 g/ha ([5]; Matricaria, post-emergence, fungicide 19.8 g/ha alone, read-out: MATCH Ob): 0%

COc1c(Cl)ccc(-c2nc(C(=O)O)c(Cl)c(N)c2F)c1F [Compound I Acid]
SASKR Ob ([1]; Compound I Acid 35 g/ha): 89 | KCHSC Ob ([2]; Compound I Acid 35 g/ha): 98 | VIOTR Ob ([3]; Compound I Acid 35 g/ha): 60 | VERPE Ob ([4]; Compound I Acid 35 g/ha): 72 | TRZAS Ob [6]: 22 | MATCH Ob ([5]; Compound I Acid 35 g/ha): 87 | HORVS Ob [7]: 15
